Laboratory results reported in the CheMixHub ionic liquid set.
± gives the uncertainty stated by the source.

Assay: xn = mol fraction of the nth substance listed
Conditions: for electrical conductivity: 101 kPa, frequency 2 MHz; for viscosity: 100 kPa

With `O=S(=O)([O-])C(F)(F)F.[Li+]` + O=S(=O)([N-]S(=O)(=O)C(F)(F)F)C(F)(F)F.[Li+] + O the electrical conductivity (318.1 K, x2 = 0.001799, x1 = 0.0005943) was 1.16 ± 0.012 S/m, the electrical conductivity (318.1 K, x2 = 0.005377, x1 = 0.001799) was 2.87 ± 0.029 S/m and the electrical conductivity (318.1 K, x2 = 0.00893, x1 = 0.003054) was 4.22 ± 0.042 S/m. The electrical conductivity (318.1 K, x2 = 0.01246, x1 = 0.004127) was 5.324 ± 0.053 S/m, the electrical conductivity (318.1 K, x2 = 0.01596, x1 = 0.005377) was 6.231 ± 0.062 S/m and the electrical conductivity (318.1 K, x2 = 0.01944, x1 = 0.006623) was 6.98 ± 0.07 S/m. It also gave an electrical conductivity (318.1 K, x2 = 0.05129, x1 = 0.0177) of 9.39 ± 0.094 S/m, an electrical conductivity (318.1 K, x2 = 0.08265, x1 = 0.02921) of 8.25 ± 0.083 S/m and an electrical conductivity (318.1 K, x2 = 0.112, x1 = 0.04029) of 6.46 ± 0.065 S/m. For the same compound, the electrical conductivity (318.1 K, x2 = 0.1395, x1 = 0.05129) was 4.845 ± 0.048 S/m, the electrical conductivity (318.1 K, x2 = 0.1654, x1 = 0.06203) was 3.58 ± 0.036 S/m and the electrical conductivity (318.1 K, x2 = 0.1898, x1 = 0.07238) was 2.631 ± 0.026 S/m. For the same compound, the electrical conductivity (318.1 K, x2 = 0.2128, x1 = 0.08265) was 1.932 ± 0.019 S/m, the electrical conductivity (318.1 K, x2 = 0.2345, x1 = 0.0927) was 1.418 ± 0.014 S/m and the electrical conductivity (318.1 K, x2 = 0.2551, x1 = 0.1024) was 1.04 ± 0.01 S/m. It also gave an electrical conductivity (318.1 K, x2 = 0.2745, x1 = 0.112) of 0.76 ± 0.008 S/m, a viscosity (318.15 K, x1 = 0.04029, x2 = 0.1114) of 4.4 ± 0.4 mPa·s and a viscosity (318.15 K, x1 = 0.07222, x2 = 0.1893) of 15.2 ± 1.2 mPa·s. For the same compound, the viscosity (318.15 K, x1 = 0.09226, x2 = 0.2336) was 31.9 ± 2.6 mPa·s, the viscosity (318.15 K, x1 = 0.1024, x2 = 0.2553) was 43.4 ± 3.5 mPa·s and the viscosity (318.15 K, x1 = 0.1122, x2 = 0) was 2.27 ± 0.18 mPa·s. For the same compound, the viscosity (318.15 K, x1 = 0.1122, x2 = 0.2745) was 63 ± 5 mPa·s, the viscosity (318.15 K, x1 = 0.1783, x2 = 0) was 5.3 ± 0.4 mPa·s and the viscosity (318.15 K, x1 = 0.2388, x2 = 0) was 11.1 ± 0.9 mPa·s. The viscosity (318.15 K, x1 = 0.2541, x2 = 0) was 15.9 ± 1.3 mPa·s, the viscosity (318.15 K, x1 = 0.2743, x2 = 0) was 23.9 ± 1.9 mPa·s and the electrical conductivity (323 K, x2 = 0.001799, x1 = 0.0005943) was 1.26 ± 0.013 S/m. The electrical conductivity (323 K, x2 = 0.005377, x1 = 0.001799) was 3.132 ± 0.031 S/m, the electrical conductivity (323 K, x2 = 0.00893, x1 = 0.003054) was 4.612 ± 0.046 S/m and the electrical conductivity (323 K, x2 = 0.01246, x1 = 0.004127) was 5.82 ± 0.058 S/m. For the same compound, the electrical conductivity (323 K, x2 = 0.01596, x1 = 0.005377) was 6.813 ± 0.068 S/m, the electrical conductivity (323 K, x2 = 0.01944, x1 = 0.006623) was 7.629 ± 0.076 S/m and the electrical conductivity (323 K, x2 = 0.05129, x1 = 0.0177) was 10.26 ± 0.1 S/m. It also gave an electrical conductivity (323 K, x2 = 0.08265, x1 = 0.02921) of 9.028 ± 0.09 S/m, an electrical conductivity (323 K, x2 = 0.112, x1 = 0.04029) of 7.08 ± 0.071 S/m and an electrical conductivity (323 K, x2 = 0.1395, x1 = 0.05129) of 5.343 ± 0.053 S/m. It also gave an electrical conductivity (323 K, x2 = 0.1654, x1 = 0.06203) of 3.97 ± 0.04 S/m, an electrical conductivity (323 K, x2 = 0.1898, x1 = 0.07238) of 2.943 ± 0.029 S/m and an electrical conductivity (323 K, x2 = 0.2128, x1 = 0.08265) of 2.18 ± 0.022 S/m. It also gave an electrical conductivity (323 K, x2 = 0.2345, x1 = 0.0927) of 1.616 ± 0.016 S/m, an electrical conductivity (323 K, x2 = 0.2551, x1 = 0.1024) of 1.2 ± 0.012 S/m and an electrical conductivity (323 K, x2 = 0.2745, x1 = 0.112) of 0.884 ± 0.009 S/m. For the same compound, the electrical conductivity (328.1 K, x2 = 0.001799, x1 = 0.0005943) was 1.37 ± 0.014 S/m, the electrical conductivity (328.1 K, x2 = 0.005377, x1 = 0.001799) was 3.4 ± 0.034 S/m and the electrical conductivity (328.1 K, x2 = 0.00893, x1 = 0.003054) was 5.004 ± 0.05 S/m. It also gave an electrical conductivity (328.1 K, x2 = 0.01246, x1 = 0.004127) of 6.316 ± 0.063 S/m, an electrical conductivity (328.1 K, x2 = 0.01596, x1 = 0.005377) of 7.39 ± 0.074 S/m and an electrical conductivity (328.1 K, x2 = 0.01944, x1 = 0.006623) of 8.28 ± 0.083 S/m. It also gave an electrical conductivity (328.1 K, x2 = 0.05129, x1 = 0.0177) of 11.13 ± 0.11 S/m, an electrical conductivity (328.1 K, x2 = 0.08265, x1 = 0.02921) of 9.803 ± 0.098 S/m and an electrical conductivity (328.1 K, x2 = 0.112, x1 = 0.04029) of 7.716 ± 0.077 S/m. The electrical conductivity (328.1 K, x2 = 0.1395, x1 = 0.05129) was 5.846 ± 0.058 S/m, the electrical conductivity (328.1 K, x2 = 0.1654, x1 = 0.06203) was 4.37 ± 0.044 S/m and the electrical conductivity (328.1 K, x2 = 0.1898, x1 = 0.07238) was 3.27 ± 0.033 S/m. It also gave an electrical conductivity (328.1 K, x2 = 0.2128, x1 = 0.08265) of 2.439 ± 0.024 S/m, an electrical conductivity (328.1 K, x2 = 0.2345, x1 = 0.0927) of 1.824 ± 0.018 S/m and an electrical conductivity (328.1 K, x2 = 0.2551, x1 = 0.1024) of 1.36 ± 0.014 S/m. The electrical conductivity (328.1 K, x2 = 0.2745, x1 = 0.112) was 1.017 ± 0.01 S/m, the viscosity (328.15 K, x1 = 0.04029, x2 = 0.1114) was 3.5 ± 0.3 mPa·s and the viscosity (328.15 K, x1 = 0.07222, x2 = 0.1893) was 11.5 ± 0.9 mPa·s. For the same compound, the viscosity (328.15 K, x1 = 0.09226, x2 = 0.2336) was 22.9 ± 1.8 mPa·s, the viscosity (328.15 K, x1 = 0.1024, x2 = 0.2553) was 30.9 ± 2.5 mPa·s and the viscosity (328.15 K, x1 = 0.1122, x2 = 0) was 1.85 ± 0.15 mPa·s. For the same compound, the viscosity (328.15 K, x1 = 0.1122, x2 = 0.2745) was 43.6 ± 3.5 mPa·s, the viscosity (328.15 K, x1 = 0.1783, x2 = 0) was 4.2 ± 0.3 mPa·s and the viscosity (328.15 K, x1 = 0.2388, x2 = 0) was 8.6 ± 0.7 mPa·s. The viscosity (328.15 K, x1 = 0.2541, x2 = 0) was 12.2 ± 1 mPa·s, the viscosity (328.15 K, x1 = 0.2743, x2 = 0) was 18.1 ± 1.5 mPa·s and the electrical conductivity (333 K, x2 = 0.001799, x1 = 0.0005943) was 1.47 ± 0.015 S/m. For the same compound, the electrical conductivity (333 K, x2 = 0.005377, x1 = 0.001799) was 3.66 ± 0.037 S/m, the electrical conductivity (333 K, x2 = 0.00893, x1 = 0.003054) was 5.39 ± 0.054 S/m and the electrical conductivity (333 K, x2 = 0.01246, x1 = 0.004127) was 6.804 ± 0.068 S/m. For the same compound, the electrical conductivity (333 K, x2 = 0.01596, x1 = 0.005377) was 7.97 ± 0.08 S/m, the electrical conductivity (333 K, x2 = 0.01944, x1 = 0.006623) was 8.919 ± 0.089 S/m and the electrical conductivity (333 K, x2 = 0.05129, x1 = 0.0177) was 12 ± 0.12 S/m. It also gave an electrical conductivity (333 K, x2 = 0.08265, x1 = 0.02921) of 10.6 ± 0.11 S/m, an electrical conductivity (333 K, x2 = 0.112, x1 = 0.04029) of 8.339 ± 0.083 S/m and an electrical conductivity (333 K, x2 = 0.1395, x1 = 0.05129) of 6.348 ± 0.063 S/m. The electrical conductivity (333 K, x2 = 0.1654, x1 = 0.06203) was 4.78 ± 0.048 S/m, the electrical conductivity (333 K, x2 = 0.1898, x1 = 0.07238) was 3.59 ± 0.036 S/m and the electrical conductivity (333 K, x2 = 0.2128, x1 = 0.08265) was 2.706 ± 0.027 S/m. It also gave an electrical conductivity (333 K, x2 = 0.2345, x1 = 0.0927) of 2.041 ± 0.02 S/m.
